Tests used:
Format in all cases: physicochemical
[1] = Solubility studies: 0.1 g marker candidate in 0.9 g solvent, solution stability at 60 C, room temperature and -10 C
Protocol: Solutions were made from 0.1 grams of marker candidate and 0.9 grams of solvent. The mixtures were warmed briefly to 60° C. to completely dissolve the marker candidate, then the solutions were cooled to room temperature. The solutions were then placed into a −10° C. freezer, and the stability of the solutions was monitored for at least 7 days.
DPGME is dipropylene glycol mono-methyl ether and NMP is N-methylpyrrolidone; AROMATIC 200 and AROMATIC 150 are mixed aromatic solvents available from Exxon Mobil Corp.

[2] = Stability and extractability of marker in xylenes solution against laundering agents, analysed by GC; details: 2000 mg/kg in xylenes, room temperature, 8 hours
[3] = Sunlight stability of marker solution, checked by GC
[4] = 75:25 Aromatic 200H: cyclohexanone
[5] = 75:25 Aromatic 200H: o-sec-butylphenol

CCCCCCCCCCCCOc1c(C(C)CC)cc(C(c2ccccc2)(c2ccccc2)c2ccccc2)cc1C(C)CC (centres unmarked)
SOLUBILITY BEHAVIOR −10 C. [1, 4]: sol 7D sol 7D
SOLUBILITY BEHAVIOR −10 C. [1, 5]: sol 7D sol 7D

CCCCCCCCCCCCOc1ccc(C(c2ccccc2)(c2ccccc2)c2ccccc2)cc1C(C)(C)C
SOLUBILITY BEHAVIOR −10 C. [1, 4]: sol 7D sol 7D
SOLUBILITY BEHAVIOR −10 C. [1, 5]: sol 7D sol 7D

CCCCCCCCCCCCOc1c(C(C)(C)C)cc(C(c2ccccc2)(c2ccccc2)c2ccccc2)cc1C(C)(C)C
SOLUBILITY BEHAVIOR −10 C. [1, 4]: sol 7D sol 7D
SOLUBILITY BEHAVIOR −10 C. [1, 5]: sol 7D sol 7D

CCCCCCCCCCCCOc1c(C(C)(C)C)cc(C(C)(C)C)cc1C(c1ccccc1)(c1ccccc1)c1ccccc1
SOLUBILITY BEHAVIOR −10 C. [1, 4]: xtls 6D xtls 6D
SOLUBILITY BEHAVIOR −10 C. [1, 5]: xtls 6D xtls 6D

CCCCCCCCCCCCOc1ccc(C(c2ccccc2)(c2ccccc2)c2ccccc2)cc1C(C)C
SOLUBILITY BEHAVIOR −10 C. [1, 4]: sol 7D
SOLUBILITY BEHAVIOR −10 C. [1, 5]: xtls 3D

CCCCCCCCCCCCOc1c(C(C)C)cc(C(c2ccccc2)(c2ccccc2)c2ccccc2)cc1C(C)C
SOLUBILITY BEHAVIOR −10 C. [1, 4]: xtls 4D

CCCCCCCCCCOc1ccc(C(c2ccccc2)(c2ccccc2)c2ccccc2)cc1C(C)CC (centres unmarked) [DecTsBuPh]
[…] −10 C. ([1]; Aromatic 200): sol 33D
[…] −10 C. ([1]; DPGDME): sol 33D
% Change ([2]; 2% Charcoal): −0.76%
% Change ([2]; 5% Bleach): 1.08%
% Change ([2]; 5% H2SO4, 5% by weight): −0.04%
% Change ([2]; 5% NaOH, 5% by weight, GC vs stock solution): 0.10%
% Change ([2]; 50% NaOH, 5% by weight): 0.60%
% Change ([2]; 98% H2SO4, 5% by weight): −1.84%
% Change ([2]; Fuller's Earth): 0.79%
% Change ([2]; Iron Specks (2% metal specs wt/wt)): 1.76%
% Change ([3]; Apr. 5, 2012): −1.90%
% Change ([3]; Apr. 13, 2012): 2.40%
% Change ([3]; Apr. 23, 2012): 0.90%
% Change ([3]; May 8, 2012): −1.40%
% Change ([3]; May 15, 2012): 1.80%
